# Test results from US20250230193A1, “CYCLIC COMPOUND HAVING SELECTIVE KRAS INHIBITORY EFFECT ON HRAS AND NRAS” (CHUGAI SEIYAKU KABUSHIKI KAISHA, priority 2022, published 2025).
# Tests used:
# [1] = biological target: GDP-bound NRAS wild-type protein (Homo sapiens, UniProt P01111); experiment: Binding to NRAS by surface plasmon resonance (SPR), Single Cycle Kinetics; conditions: KD ratio NRAS/KRAS, SPR, GDP-bound wild-type proteins
# [2] = biological target: GDP-bound HRAS wild-type protein (Homo sapiens, UniProt P01112); experiment: Binding to HRAS by surface plasmon resonance (SPR), Single Cycle Kinetics; conditions: KD ratio HRAS/KRAS, SPR, GDP-bound wild-type proteins
# Chain of GDP-bound HRAS wild-type protein (P01112 whole entry): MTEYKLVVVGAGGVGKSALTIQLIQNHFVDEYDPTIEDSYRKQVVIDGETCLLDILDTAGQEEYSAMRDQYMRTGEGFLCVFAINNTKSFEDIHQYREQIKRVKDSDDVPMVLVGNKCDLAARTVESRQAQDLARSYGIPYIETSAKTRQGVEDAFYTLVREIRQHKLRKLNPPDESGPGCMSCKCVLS
# Chain of GDP-bound NRAS wild-type protein (P01111 whole entry): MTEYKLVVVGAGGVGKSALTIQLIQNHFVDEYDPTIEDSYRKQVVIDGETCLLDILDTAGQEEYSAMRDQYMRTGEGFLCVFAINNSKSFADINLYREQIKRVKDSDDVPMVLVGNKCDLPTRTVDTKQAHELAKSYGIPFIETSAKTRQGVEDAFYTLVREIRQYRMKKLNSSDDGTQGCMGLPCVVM
Compound,NRAS/KRAS (ratio of KD value with respect to GDP-bound NRAS wild-type protein to KD value with respect to KRAS) [1],HRAS/KRAS (ratio of KD value with respect to GDP-bound HRAS wild-type protein to KD value with respect to KRAS) [2]
CCC[C@H]1C(=O)N[C@@H](C2CCCC2)C(=O)N(C)CC(=O)N(C)[C@H]2C/C=C\CCN(C2=O)[C@@H](Cc2ccc(C(F)(F)F)cc2)C(=O)N(C)CC(=O)N[C@@H](CCc2ccc(C(F)(F)F)c(Cl)c2)C(=O)N2C[C@H](OCC)C[C@H]2C(=O)NC2(CC(C)(C)C2)C(=O)N(C)[C@@H](CC(C)(C)C)C(=O)N(C)[C@H](C(=O)N(C)C)CC(=O)N1C [PP2971],A (a compound having 10 or more and less than 20 is denoted as A),A (a compound having 10 or more and less than 20 is denoted as A)
CCC[C@H]1C(=O)N[C@@H]([C@@H](C)CC)C(=O)N(C)CC(=O)N(C)[C@H]2C/C=C\CCN(C2=O)[C@@H](Cc2ccc(C(F)(F)F)cc2)C(=O)N(C)CC(=O)N[C@@H](CCc2ccc(C(F)(F)F)c(Cl)c2)C(=O)N2C[C@H](OCC)C[C@H]2C(=O)NC2(CC(C)(C)C2)C(=O)N(C)[C@@H]([C@@H](C)CC)C(=O)N(C)[C@H](C(=O)N(C)C)CC(=O)N1C [PP2973],A (a compound having 10 or more and less than 20 is denoted as A),A (a compound having 10 or more and less than 20 is denoted as A)
CCC(CC)[C@H]1C(=O)N(C)[C@H](C(=O)N(C)C)CC(=O)N(C)[C@@H](COC)C(=O)N[C@@H]([C@@H](C)CC)C(=O)N(C)CC(=O)N(C)[C@H]2C/C=C\CCN(C2=O)[C@@H](Cc2ccc(C)cc2)C(=O)N(C)CC(=O)N[C@@H](CCc2ccc(Cl)c(Cl)c2)C(=O)N2CCCCC[C@H]2C(=O)NC2(CC(C)(C)C2)C(=O)N1C [PP2974],A (a compound having 10 or more and less than 20 is denoted as A),A (a compound having 10 or more and less than 20 is denoted as A)
CCC[C@H]1C(=O)N[C@@H]([C@@H](C)CC)C(=O)N(C)CC(=O)N(C)[C@H]2C/C=C\CCN(C2=O)[C@@H](Cc2ccc(C(F)(F)F)cc2)C(=O)N(C)CC(=O)N[C@@H](CCc2ccc(C(F)(F)F)c(Cl)c2)C(=O)N2C[C@H](OCC)C[C@H]2C(=O)NC2(CC(C)(C)C2)C(=O)N(C)[C@@H](CC(F)(F)F)C(=O)N(C)[C@H](C(=O)N(C)C)CC(=O)N1C [PP2975],A (a compound having 10 or more and less than 20 is denoted as A),A (a compound having 10 or more and less than 20 is denoted as A)
CCC[C@H]1C(=O)N[C@@H]([C@@H](C)CC)C(=O)N(C)CC(=O)N(C)[C@H]2C/C=C\CCN(C2=O)[C@@H](Cc2ccc(C(F)(F)F)cc2)C(=O)N(C)CC(=O)N[C@@H](CCc2ccc(C(F)(F)F)c(Cl)c2)C(=O)N2C[C@H](OCC)C[C@H]2C(=O)NC2(CC(C)(C)C2)C(=O)N(C)[C@@H](CC(C)C)C(=O)N(C)[C@H](C(=O)N(C)C)CC(=O)N1C [PP2977],A (a compound having 10 or more and less than 20 is denoted as A),A (a compound having 10 or more and less than 20 is denoted as A)
C#CC[C@H]1C(=O)N[C@@H]([C@@H](C)CC)C(=O)N(C)CC(=O)N(C)[C@H]2C/C=C\CCN(C2=O)[C@@H](Cc2ccc(C)cc2)C(=O)N(C)CC(=O)N[C@@H](CCc2cc(F)c(C(F)(F)F)c(F)c2)C(=O)N2CC3(CC3)C[C@H]2C(=O)NC2(CC(C)(C)C2)C(=O)N(C)[C@@H](C2CCCC2)C(=O)N(C)[C@H](C(=O)N(C)C)CC(=O)N1C [PP2978],A (a compound having 10 or more and less than 20 is denoted as A),A (a compound having 10 or more and less than 20 is denoted as A)
